Assay results as given in US10597366B2, “Aryl ethers and uses thereof” (Peloton Therapeutics, Inc., priority 2013, dated 2020).
Where two headings read alike, the source gives them in different places.

Assays:
[1] = test system: VEGFA concentration in medium of 786-O cells; assay: VEGF ELISA Assay; assay type: cell-based; details: Homo sapiens
Method: Each concentration had duplicated wells. About 20 hours later, medium was removed by suction and each well was supplied with 180 μL of growth medium. About 20 μl freshly-made 10× compound stocks were added to each well. […] The EC50 was calculated by GraphPad Prism using the dose-response-inhibition (four parameter) equation. The cell seeded plate was then subjected to CellTiter-Glo luminescence cell viability assay (Promega) by adding 50 μL of Celltiter Glo reagent into each well and shaking the plate for 8 minutes at 550 rpm (Thermomixer R, Eppendorf) then read luminescence signal in plate reader (3 second delay, 0.5 second/well integration time, Synergy 2 multi Detection Microplate reader) immediately.

[2] = test system: 786-O-Hif-Luc cells (luciferase gene driven by multiple HIF responsive elements); assay: Luciferase Assay; assay type: cell-based; details: 24 h, read-out: Mean Luciferease EC50
Method: A pool of infected cells were then selected against 2 μg/mL of puromycin (P8833, Sigma) for 10 days followed by limited dilution to select single clones.
Each concentration was tested in triplicate. After about 24 hours, luciferase activity was determined using ONE-Glo Luciferase Assay Reagent (E6110, Promega) following the manufacturer's recommended procedure. EC50 were calculated by using Dotmatics software.

[3] = 786-0, read-out: Mean VEGF ELISA EC50
[4] = 786-0, 786-O cells, read-out: Mean VEGF ELISA EC50
[5] = 786-O-Hif-Luc cells, about 24 hours

| Compound | EC50 [1, 3] | EC50 [2] | EC50 [1, 4] | EC50 [2, 5] |
| --- | --- | --- | --- | --- |
| O=S(=O)(c1ccc(Oc2cc(F)cc(Cl)c2)c(Cl)c1CO)C(F)F [Compound 41, (2-Chloro-3-(3-chloro-5-fluorophenoxy)-6-((difluoromethyl)sulfonyl)phenyl)methanol] | 0.57 µM | 0.4 µM | – | – |
| O=S(=O)(CF)c1ccc(Oc2cc(F)cc(F)c2)c2c1[C@H](O)C(F)(F)C2 [Compound 64, (S)-4-(3,5-Difluorophenoxy)-2,2-difluoro-7-((fluoromethyl)sulfonyl)-2,3-dihydro-1H-inden-1-ol] | – | – | 0.001 µM | 0.005 µM |
| N#Cc1cc(F)cc(Oc2ccc(C(F)(F)F)c3c2CC(F)(F)[C@H]3O)c1 [Compound 273, 3-[(1S)-2,2-Difluoro-1-hydroxy-7-(trifluoromethyl)indan-4-yl]oxy-5-fluoro-benzonitrile] | – | – | 0.0062 µM | 0.0046 µM |
| O=S(=O)(c1ccc(Oc2cc(F)c[n+]([O-])c2)c2c1[C@H](O)C(F)(F)C2)C(F)(F)F [Compound 310, (S)-3-((2,2-difluoro-1-hydroxy-7-((trifluoromethyl)sulfonyl)-2,3-dihydro-1H-inden-4-yl)oxonio)-5-fluoropyridine 1-oxide] | – | – | 0.14 µM | 0.11 µM |
| N#Cc1cc(Oc2ccc(S(=O)(=O)C(F)(F)F)c3c2CC(F)(F)[C@H]3O)c[n+]([O-])c1 [Compound 267, (S)-3-cyano-5-((2,2-difluoro-1-hydroxy-7-((trifluoromethyl)sulfonyl)-2,3-dihydro-1H-inden-4-yl)oxy)pyridine 1-oxide] | – | – | 0.83 µM | 0.16 µM |
| O=S(=O)(c1ccc(Oc2ccc(F)c(F)c2)c2c1[C@H](O)C(F)(F)C2)C(F)(F)F [Compound 233, (S)-4-(3,4-Difluorophenoxy)-2,2-difluoro-7-((trifluoromethyl)sulfonyl)-2,3-dihydro-1H-inden-1-ol] | – | – | 0.015 µM | 0.013 µM |
| O=S(=O)(c1ccc(Oc2cc(F)cc(Cl)c2)c(C(F)F)c1)C(F)(F)F [Compound 124, 1-(3-Chloro-5-fluorophenoxy)-2-(difluoromethyl)-4-((trifluoromethyl)sulfonyl)benzene] | 0.4 µM | 0.33 µM | – | – |
| N#Cc1cccc(Oc2ccc(S(=O)(=O)C(F)F)c3c2CC(F)(F)[C@H]3O)c1 [Compound 236, (S)-3-((7-((difluoromethyl)sulfonyl)-2,2-difluoro-1-hydroxy-2,3-dihydro-1H-inden-4-yl)oxy)benzonitrile] | – | – | 0.016 µM | 0.011 µM |
| N#Cc1cc(F)cc(Oc2ccc(S(=N)(=O)CF)c3c2CC(F)(F)[C@H]3O)c1 (single isomer, unassigned) [Compound 274] | – | – | 1.44 µM | 0.19 µM |
| O=S(=O)(c1ccc(Oc2cc(F)cc(Cl)c2)c2c1C(O)CC2)C(F)F (stereo not shown) [Compound 17, 4-(3-chloro-5-fluorophenoxy)-7-((difluoromethyl)sulfonyl)-2,3-dihydro-1H-inden-1-ol] | 0.16 µM | – | – | – |
| O=S(=O)(c1ccc(Oc2ccc(F)c(F)c2)c2c1[C@H](O)C(F)(F)C2)C(F)F [Compound 196, (S)-7-((Difluoromethyl)sulfonyl)-4-(3,4-difluorophenoxy)-2,2-difluoro-2,3-dihydro-1H-inden-1-ol] | – | – | 0.047 µM | 0.046 µM |
| N#Cc1cc(Oc2ccc(S(=O)(=O)C(F)(F)F)c3c2CC(F)(F)[C@H]3O)ccc1F [Compound 228, (S)-5-((2,2-Difluoro-1-hydroxy-7-((trifluoromethyl)sulfonyl)-2,3-dihydro-1H-inden-4-yl)oxy)-2-fluorobenzonitrile] | – | – | 0.028 µM | 0.033 µM |
| O=S(=O)(CF)c1ccc(Oc2cc(F)c(F)c(F)c2)c2c1[C@H](O)C(F)(F)C2 [Compound 188, (S)-2,2-Difluoro-7-((fluoromethyl)sulfonyl)-4-(3,4,5-trifluorophenoxy)-2,3-dihydro-1H-inden-1-ol] | – | – | 0.088 µM | 0.051 µM |
| N#Cc1cncc(Oc2ccc(S(=O)(=O)C(F)(F)F)c3c2C[C@@H](F)[C@H]3O)c1 [Compound 225, 5-(((1S,2R)-2-Fluoro-1-hydroxy-7-((trifluoromethyl)sulfonyl)-2,3-dihydro-1H-inden-4-yl)oxy)nicotinonitrile] | – | – | 0.069 µM | 0.025 µM |
| N#Cc1cc(F)cc(Oc2ccc(S(=O)(=O)C(F)F)c(CO)c2Br)c1 [Compound 80, 3-(2-Bromo-4-((difluoromethyl)sulfonyl)-3-(hydroxymethyl)phenoxy)-5-fluorobenzonitrile] | – | – | 0.63 µM | 0.31 µM |
| O=S(=O)(c1ccc(Oc2cc(F)cc(F)c2)c2c1C(O)C(F)(F)C2)C(F)F (stereo not shown) [Compound 9, 7-(difluoromethylsulfonyl)-4-(3,5-difluorophenoxy)-2,2-difluoro-indan-1-ol] | – | – | 0.006 µM | 0.009 µM |
| O=S(=O)(CF)c1ccc(Oc2cc(F)cc(F)c2)c2c1[C@H](O)CC2 [Compound 60, (R)-4-(3,5-Difluorophenoxy)-7-((fluoromethyl)sulfonyl)-2,3-dihydro-1H-inden-1-ol] | – | – | 0.04 µM | 0.066 µM |
| CS(=O)(=O)c1ccc(Oc2cncc(C#N)c2)c2c1[C@H](O)C(F)(F)C2 [Compound 325, (S)-5-((2,2-Difluoro-1-hydroxy-7-(methylsulfonyl)-2,3-dihydro-1H-inden-4-yl)oxy)nicotinonitrile] | – | – | 0.15 µM | 0.49 µM |
| CS(=O)(=O)c1ccc(Oc2cc(Cl)cc(C#N)c2)c2c1[C@H](O)C(F)(F)C2 [Compound 234, (S)-3-Chloro-5-((2,2-difluoro-1-hydroxy-7-(methylsulfonyl)-2,3-dihydro-1H-inden-4-yl)oxy)benzonitrile] | 0.05 µM | 0.041 µM | – | – |
| CS(=O)(=NC#N)c1ccc(Oc2cc(F)cc(C#N)c2)c2c1[C@H](O)C(F)(F)[C@@H]2F (single isomer, unassigned) [Compound 316] | – | – | 0.017 µM | 0.012 µM |
| CS(=O)(=NC#N)c1ccc(Oc2cc(F)cc(F)c2)c2c1C(O)C(F)(F)C2 (stereo not shown) [Compound 191, N-((7-(3,5-difluorophenoxy)-2,2-difluoro-3-hydroxy-2,3-dihydro-1H-inden-4-yl)(methyl)(oxo)-λ^6-sulfanylidene)cyanamide] | – | – | 0.13 µM | 0.053 µM |
| N#Cc1cc(S(=O)(=O)C(F)F)ccc1Oc1cc(F)cc(Cl)c1 [Compound 133, 2-(3-Chloro-5-fluorophenoxy)-5-((difluoromethyl)sulfonyl)benzonitrile] | – | – | 1.87 µM | – |
| O=S(=O)(c1ccc(Oc2cc(F)cc(Cl)c2)c(Br)c1Cl)C(F)(F)F [Compound 179, 2-Bromo-3-chloro-1-(3-chloro-5-fluorophenoxy)-4-((trifluoromethyl)sulfonyl)benzene] | – | – | 1.6 µM | – |
| O=S(=O)(c1ccc(Oc2cc(F)cc(Cl)c2)c(Br)c1CO)C(F)(F)F [Compound 102, (2-Bromo-3-(3-chloro-5-fluorophenoxy)-6-((trifluoromethyl)sulfonyl)phenyl)methanol] | – | – | 0.64 µM | – |
| O=S(=O)(c1ccc(Oc2cc(F)cc(Cl)c2)c2c1[C@H](O)CC2)C(F)F [Compound 1, (R)-4-(3-chloro-5-fluorophenoxy)-7-((difluoromethyl)sulfonyl)-2,3-dihydro-1H-inden-1-ol] | 0.25 µM | – | – | – |
| N#Cc1ccc(Oc2cc(F)cc(F)c2)c2c1[C@H](O)C(F)(F)C2 [Compound 67, (S)-7-(3,5-Difluorophenoxy)-2,2-difluoro-3-hydroxy-2,3-dihydro-1H-indene-4-carbonitrile] | 0.22 µM | – | – | – |
